Here are results for two compounds from patent publication US11091463B2, “Amide-substituted pyridinyltriazole derivatives and uses thereof” (BAYER PHARMA AKTIENGESELLSCHAFT, priority 2016, dated 2021).

One assay has as its target T1, human V1a receptor (Homo sapiens, UniProt P37288).
T1 construct: expressed in transfected cells; host or cells: CHO K1 (ATCC), also stably transfected with a modified aequorin
In words: Cellular in vitro assay for vasopressin receptor activity, V1a receptor cell line (photoprotein luminescence). In kind it is cell-based. The note with it: Table 1A, compounds of the invention; for ratio IC50 hV2/hV1a: selectivity ratio. How it is done:
(§1) B-1. Cellular In Vitro Assay for Determining Vasopressin Receptor Activity
The identification of agonists and antagonists of the V1a and V2 vasopressin receptors from humans, rats and dogs as well as the quantification of the activity of the compounds of the invention is carried out using recombinant cell lines. These cell lines originally derive from a hamster's ovary epithelial cell (Chinese Hamster Ovary, CHO K1, ATCC: American Type Culture Collection, Manassas, Va. 20108, USA). The test cell lines constitutively express the human, rat or dog V1a or V2 receptors. In case of the Gαq-coupled V1a receptors, cells are also stably transfected with a modified form of the calcium-sensitive photoproteins aequorin (human and rat V1a) or obelin (dog V1a), which, after reconstitution with the cofactor coelenterazine, emit light when there are increases in free calcium concentrations [Rizzuto R, Simpson A W, Brini M, Pozzan T, Nature, 358, 325-327 (1992); Illarionov B A, Bondar V S, Illarionova V A, Vysotski E S, Gene, 153 (2), 273-274 (1995)]. The resulting vasopressin receptor cells react to stimulation of the recombinantly expressed V1a receptors by intracellular release of calcium ions, which can be quantified by the resulting photoprotein luminescence. The Gs-coupled V2 receptors are stably transfected into cell lines expressing the gene for firefly luciferase under control of a CRE-responsible promoter. Activation of V2 receptors induces the activation of the CRE-responsive promoter via cAMP increase, thereby inducing the expression of firefly luciferase. The light emitted by photoproteins of V1a cell lines as well as the light emitted by firefly luciferase of V2 cell lines corresponds to the activation or inhibition of the respective vasopressin receptor. The bioluminescence of the cell lines is detected using a suitable luminometer [Milligan G, Marshall F, Rees S, Trends in Pharmacological Sciences, 17, 235-237 (1996)].
Vasopressin V1a Receptor Cell Lines:
On the day before the assay, the cells are plated out in culture medium (DMEM/F12, 2% FCS, 2 mM glutamine, 10 mM HEPES, 5 μg/ml coelenterazine) in 384-well microtiter plates and kept in a cell incubator (96% humidity, 5% v/v CO2, 37° C.). On the day of the assay, test compounds in various concentrations are placed for 10 minutes in the wells of the microtiter plate before the agonist [Arg^8]-vasopressin at EC50 concentration is added. The resulting light signal is measured immediately in a luminometer.
Table 1A below lists individual IC50 values for the compounds of the invention (including racemic mixtures as well as separated enantiomers) that were obtained from cell lines transfected with the human V1a or V2 receptor: […]

The next assay addresses T2, human V2 receptor (Homo sapiens, UniProt P30518).
T2 construct: expressed in transfected cells; host or cells: CHO K1 (ATCC) line expressing firefly luciferase under a CRE-responsive promoter
As to the kind of experiment: Cellular in vitro assay for vasopressin receptor activity, V2 receptor cell line (CRE-luciferase). The note with it: Table 1A; compounds of the invention; CHO cell line transfected with human V2 receptor, [Arg8]-vasopressin at EC50; read-out: IC50 hV2. In kind it is cell-based. Here is the method:
as §1
The identification of agonists and antagonists of the V1a and V2 vasopressin receptors from humans, rats and dogs as well as the quantification of the activity of the compounds of the invention is carried out using recombinant cell lines. These cell lines originally derive from a hamster's ovary epithelial cell (Chinese Hamster Ovary, CHO K1, ATCC: American Type Culture Collection, Manassas, Va. 20108, USA). The test cell lines constitutively express the human, rat or dog V1a or V2 receptors. […] The resulting vasopressin receptor cells react to stimulation of the recombinantly expressed V1a receptors by intracellular release of calcium ions, which can be quantified by the resulting photoprotein luminescence. […] The bioluminescence of the cell lines is detected using a suitable luminometer [Milligan G, Marshall F, Rees S, Trends in Pharmacological Sciences, 17, 235-237 (1996)]. […]
On the day before the assay, the cells are plated out in culture medium (DMEM/F12, 2% FCS, 2 mM glutamine, 10 mM HEPES) in 384-well microtiter plates and kept in a cell incubator (96% humidity, 5% v/v CO2, 37° C.). […] Upon addition of the cell lysis reagent Triton™ and the substrate luciferin, luminescence of firefly luciferase is measured in a luminometer. […]

T1 sequence (P37288 whole entry): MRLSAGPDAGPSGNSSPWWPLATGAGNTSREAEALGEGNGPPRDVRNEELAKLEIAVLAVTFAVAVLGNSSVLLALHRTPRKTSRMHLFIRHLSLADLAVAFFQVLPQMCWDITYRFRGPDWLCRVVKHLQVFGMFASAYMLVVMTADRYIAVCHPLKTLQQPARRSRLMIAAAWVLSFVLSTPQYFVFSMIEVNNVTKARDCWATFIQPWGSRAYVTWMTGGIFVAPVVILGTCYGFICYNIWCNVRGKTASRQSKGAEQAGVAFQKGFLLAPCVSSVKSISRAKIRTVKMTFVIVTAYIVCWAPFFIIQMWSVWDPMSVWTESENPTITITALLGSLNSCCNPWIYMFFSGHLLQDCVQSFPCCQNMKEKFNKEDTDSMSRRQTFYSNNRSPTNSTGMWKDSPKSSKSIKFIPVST
T2 sequence (P30518 whole entry): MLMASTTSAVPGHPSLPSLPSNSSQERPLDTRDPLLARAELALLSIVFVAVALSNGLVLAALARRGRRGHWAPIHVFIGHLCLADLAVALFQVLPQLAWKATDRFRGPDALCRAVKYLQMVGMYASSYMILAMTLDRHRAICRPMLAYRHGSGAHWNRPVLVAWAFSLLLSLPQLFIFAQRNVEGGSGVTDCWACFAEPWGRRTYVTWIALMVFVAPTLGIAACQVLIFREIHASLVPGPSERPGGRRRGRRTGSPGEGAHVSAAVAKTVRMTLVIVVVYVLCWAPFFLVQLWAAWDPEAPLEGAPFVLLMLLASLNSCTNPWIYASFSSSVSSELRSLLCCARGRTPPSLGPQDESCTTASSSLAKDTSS

Consider `NC(=O)c1nc(Cn2nc(-c3ccc(Cl)cc3)n(CC(=O)C(F)(F)F)c2=O)nn1-c1cnccc1Cl` [Example 16, 3-{[3-(4-Chlorophenyl)-5-oxo-4-(3,3,3-trifluoro-2-oxopropyl)-4,5-dihydro-1H-1,2,4-triazol-1-yl]methyl}-1-(4-chloropyridin-3-yl)-1H-1,2,4-triazole-5-carboxamide (ketone form) or 3-{[3-(4-Chlorophenyl)-5-oxo-4-(3,3,3-trifluoro-2,2-dihydroxypropyl)-4,5-dihydro-1H-1,2,4-triazol-1-yl]-methyl}-1-(4-chloropyridin-3-yl)-1H-1,2,4-triazole-5-carboxamide (hydrate form)], for which the “ratio IC50 hV2/hV1a” value on human V1a receptor came out at 53.6.

Take `NC(=O)c1nc(Cn2nc(-c3ccc(Cl)cc3)n(CC(=O)C(F)(F)F)c2=O)nn1-c1ncccc1C(F)(F)F` [Example 17, 3-{[3-(4-Chlorophenyl)-5-oxo-4-(3,3,3-trifluoro-2-oxopropyl)-4,5-dihydro-1H-1,2,4-triazol-1-yl]methyl}-1-[3-(trifluoromethyl)pyridin-2-yl]-1H-1,2,4-triazole-5-carboxamide (ketone form) or 3-{[3-(4-Chlorophenyl)-5-oxo-4-(3,3,3-trifluoro-2,2-dihydroxypropyl)-4,5-dihydro-1H-1,2,4-triazol-1-yl]methyl}-1-[3-(trifluoromethyl)pyridin-2-yl]-1H-1,2,4-triazole-5-carboxamide (hydrate form)]: the IC50 – broadly, the concentration needed to halve the response being measured – was 0.35 µM at human V2 receptor and 0.0053 µM at human V1a receptor (CHO cell line transfected with human V1a receptor, [Arg8]-vasopressin at EC50, read-out: IC50 hV1a). The “ratio IC50 hV2/hV1a” value on human V1a receptor is listed as 66.0.
